This is an account of results in ChEMBL document CHEMBL5291721, “A preclinical secondary pharmacology resource illuminates target-adverse drug reaction associations of marketed drugs” (Nat Commun, 2023).

Assay [1] has as its target T1, Alpha-1A adrenergic receptor (Homo sapiens, UniProt P35348).
T1 sequence (P35348 whole entry): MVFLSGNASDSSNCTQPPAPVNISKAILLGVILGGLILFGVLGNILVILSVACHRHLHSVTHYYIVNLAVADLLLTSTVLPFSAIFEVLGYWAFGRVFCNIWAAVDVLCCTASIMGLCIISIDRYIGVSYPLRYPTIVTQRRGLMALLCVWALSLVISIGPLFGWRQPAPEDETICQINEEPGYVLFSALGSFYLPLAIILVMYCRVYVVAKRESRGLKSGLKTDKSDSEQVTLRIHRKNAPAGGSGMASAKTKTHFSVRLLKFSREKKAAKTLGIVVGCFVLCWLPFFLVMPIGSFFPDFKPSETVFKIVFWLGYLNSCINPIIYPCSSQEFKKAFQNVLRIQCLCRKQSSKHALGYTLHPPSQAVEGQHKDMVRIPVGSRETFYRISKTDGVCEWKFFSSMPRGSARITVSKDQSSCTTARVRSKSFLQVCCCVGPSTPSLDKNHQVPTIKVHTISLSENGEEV

The target in assay [2] is T2, Adenosine receptor A1 (Homo sapiens, UniProt P30542).
T2 sequence (P30542 whole entry): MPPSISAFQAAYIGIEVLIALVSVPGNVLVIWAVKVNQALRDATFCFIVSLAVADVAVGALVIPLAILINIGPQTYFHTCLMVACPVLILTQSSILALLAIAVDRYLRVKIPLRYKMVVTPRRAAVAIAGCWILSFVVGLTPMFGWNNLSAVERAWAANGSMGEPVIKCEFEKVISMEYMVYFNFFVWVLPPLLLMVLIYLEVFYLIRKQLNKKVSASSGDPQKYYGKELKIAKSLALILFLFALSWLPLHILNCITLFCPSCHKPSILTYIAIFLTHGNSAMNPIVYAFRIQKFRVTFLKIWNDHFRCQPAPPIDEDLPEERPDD

For assay [3], the target named is T3, Mu-type opioid receptor (Homo sapiens, UniProt P35372).
In assay [4] the target is T3, Mu-type opioid receptor. The assay can be described thus: biochemical. The assay is classed as functional.
Assay [5] deals with T4, B2 bradykinin receptor (Homo sapiens, UniProt P30411).
T4 sequence (P30411 whole entry): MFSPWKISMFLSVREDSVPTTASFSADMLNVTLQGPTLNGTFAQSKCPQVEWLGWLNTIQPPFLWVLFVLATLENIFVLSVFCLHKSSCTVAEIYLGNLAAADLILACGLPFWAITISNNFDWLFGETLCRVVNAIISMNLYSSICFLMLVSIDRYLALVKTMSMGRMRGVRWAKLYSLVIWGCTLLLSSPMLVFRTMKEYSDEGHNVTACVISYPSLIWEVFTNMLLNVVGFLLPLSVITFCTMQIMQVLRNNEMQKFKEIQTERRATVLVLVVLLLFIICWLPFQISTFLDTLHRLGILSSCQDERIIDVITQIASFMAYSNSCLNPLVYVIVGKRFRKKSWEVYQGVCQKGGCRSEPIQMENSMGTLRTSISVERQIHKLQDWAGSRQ

Assay [6] concerns the target T2, Adenosine receptor A1. The source holds these as a separate data set.
The target of assay [7] is T5, Gastrin/cholecystokinin type B receptor (Homo sapiens, UniProt P32239).
T5 sequence (P32239 whole entry): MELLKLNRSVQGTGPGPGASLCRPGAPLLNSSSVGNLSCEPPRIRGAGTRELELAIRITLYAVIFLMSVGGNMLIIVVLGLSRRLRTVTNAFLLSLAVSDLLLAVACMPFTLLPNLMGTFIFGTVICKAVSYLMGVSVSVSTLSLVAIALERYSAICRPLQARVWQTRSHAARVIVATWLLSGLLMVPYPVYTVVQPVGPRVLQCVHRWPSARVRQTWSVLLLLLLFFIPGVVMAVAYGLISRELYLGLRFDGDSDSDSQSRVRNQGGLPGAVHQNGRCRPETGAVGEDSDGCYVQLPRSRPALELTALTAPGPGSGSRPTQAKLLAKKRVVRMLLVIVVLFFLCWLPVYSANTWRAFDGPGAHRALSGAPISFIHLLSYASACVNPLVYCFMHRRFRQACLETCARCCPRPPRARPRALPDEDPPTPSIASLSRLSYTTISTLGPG

For assay [8], the target named is Histamine H3 receptor (Homo sapiens, UniProt Q9Y5N1).
In assay [9] the target is T6, Type-1 angiotensin II receptor (Homo sapiens, UniProt P30556).
T6 sequence (P30556 whole entry): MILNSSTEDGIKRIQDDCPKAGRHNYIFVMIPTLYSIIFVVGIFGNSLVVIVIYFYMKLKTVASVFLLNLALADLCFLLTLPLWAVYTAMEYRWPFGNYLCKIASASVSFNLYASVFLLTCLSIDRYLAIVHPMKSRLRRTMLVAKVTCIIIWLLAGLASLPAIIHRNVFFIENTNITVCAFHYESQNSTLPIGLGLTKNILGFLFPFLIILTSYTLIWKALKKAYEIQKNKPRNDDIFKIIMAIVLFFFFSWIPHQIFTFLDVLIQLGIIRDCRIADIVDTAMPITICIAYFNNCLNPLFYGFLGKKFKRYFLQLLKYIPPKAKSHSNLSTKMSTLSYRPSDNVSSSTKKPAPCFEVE

The target in assay [10] is D(1A) dopamine receptor (Homo sapiens, UniProt P21728).
The target of assay [11] is T7, B1 bradykinin receptor (Homo sapiens, UniProt P46663).
T7 sequence (P46663 whole entry): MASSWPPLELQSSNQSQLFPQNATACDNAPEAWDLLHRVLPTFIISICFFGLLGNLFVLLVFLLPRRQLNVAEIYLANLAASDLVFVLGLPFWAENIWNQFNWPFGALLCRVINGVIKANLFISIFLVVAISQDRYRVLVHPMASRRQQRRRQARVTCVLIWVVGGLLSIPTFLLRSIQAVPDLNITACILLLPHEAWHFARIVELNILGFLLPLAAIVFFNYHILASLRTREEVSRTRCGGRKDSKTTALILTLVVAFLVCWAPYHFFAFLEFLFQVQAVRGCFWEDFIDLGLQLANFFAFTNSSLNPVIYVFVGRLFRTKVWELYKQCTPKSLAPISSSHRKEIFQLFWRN
Also: assay procedure not described here.

Histamine H3 receptor, sequence (Q9Y5N1 whole entry): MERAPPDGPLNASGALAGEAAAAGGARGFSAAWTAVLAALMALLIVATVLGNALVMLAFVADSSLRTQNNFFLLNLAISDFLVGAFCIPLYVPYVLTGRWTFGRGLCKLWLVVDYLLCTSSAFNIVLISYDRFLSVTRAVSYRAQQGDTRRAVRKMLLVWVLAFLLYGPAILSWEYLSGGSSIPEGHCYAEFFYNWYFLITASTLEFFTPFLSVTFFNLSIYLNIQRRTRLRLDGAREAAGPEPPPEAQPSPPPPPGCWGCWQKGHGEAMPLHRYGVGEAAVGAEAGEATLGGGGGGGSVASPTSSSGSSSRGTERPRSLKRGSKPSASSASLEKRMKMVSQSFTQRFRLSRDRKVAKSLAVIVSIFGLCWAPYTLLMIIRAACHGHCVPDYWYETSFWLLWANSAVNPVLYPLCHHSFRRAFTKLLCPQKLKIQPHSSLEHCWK
T3 sequence (P35372 whole entry): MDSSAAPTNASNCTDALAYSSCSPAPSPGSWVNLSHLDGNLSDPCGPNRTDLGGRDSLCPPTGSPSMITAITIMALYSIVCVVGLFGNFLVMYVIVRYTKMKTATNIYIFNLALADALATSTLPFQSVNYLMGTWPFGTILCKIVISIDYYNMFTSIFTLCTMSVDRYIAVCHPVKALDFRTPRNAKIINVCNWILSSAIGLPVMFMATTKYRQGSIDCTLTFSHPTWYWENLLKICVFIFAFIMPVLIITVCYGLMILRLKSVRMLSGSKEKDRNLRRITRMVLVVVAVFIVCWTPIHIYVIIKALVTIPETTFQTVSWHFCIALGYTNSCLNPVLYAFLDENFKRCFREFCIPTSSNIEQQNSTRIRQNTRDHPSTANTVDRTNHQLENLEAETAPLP
D(1A) dopamine receptor, sequence (P21728 whole entry): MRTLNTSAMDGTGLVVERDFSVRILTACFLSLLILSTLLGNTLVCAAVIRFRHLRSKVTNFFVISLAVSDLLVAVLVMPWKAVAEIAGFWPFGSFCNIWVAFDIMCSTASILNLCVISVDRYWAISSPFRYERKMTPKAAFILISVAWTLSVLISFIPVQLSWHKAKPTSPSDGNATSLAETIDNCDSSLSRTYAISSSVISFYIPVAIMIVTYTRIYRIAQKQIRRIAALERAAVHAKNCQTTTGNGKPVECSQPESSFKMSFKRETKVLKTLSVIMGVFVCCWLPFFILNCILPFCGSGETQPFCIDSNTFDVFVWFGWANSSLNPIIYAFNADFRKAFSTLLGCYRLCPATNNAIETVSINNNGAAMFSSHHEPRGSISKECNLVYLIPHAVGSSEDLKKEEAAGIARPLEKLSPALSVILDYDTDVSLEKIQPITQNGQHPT

Turning to `O=C(O)c1cccc(-c2noc(-c3ccccc3F)n2)c1`, the AC50 in assay [1] is above 10 µM; in assay [2] it was above 30 µM; in [3], above 30 µM.

As to `CO/N=C(\C(=O)N[C@@H]1C(=O)N2C(C(=O)OCOC(=O)C(C)(C)C)=C(C)CS[C@H]12)c1csc(N)n1`, the AC50 in [2] and in assay [4] was above 30 µM throughout.

In assay [2], `CCS(=O)(=O)N1CC(CC#N)(n2cc(-c3ncnc4[nH]ccc34)cn2)C1` [BARICITINIB] yielded an AC50 above 30 µM.

For `O=C(Cn1ccnc1[N+](=O)[O-])NCc1ccccc1` [BENZNIDAZOLE], the AC50 in [2], in assay [5], in [6], in [4], in [7] and in [8] was above 30 µM each time. The same compound displayed a concentration at half-maximal activity (AC50) in [9] above 30 µM.

`NCc1ccccc1CC(=O)N[C@@H]1C(=O)N2C(C(=O)O)=C(CSc3nnnn3CC(=O)O)CS[C@H]12` [CEFORANIDE] returned a half-maximal activity concentration (AC50) in assay [2] above 30 µM.

`COCC1=C(C(=O)OC(C)OC(=O)OC(C)C)N2C(=O)[C@@H](NC(=O)/C(=N\OC)c3csc(N)n3)[C@H]2SC1` (stereo partly specified) [CEFPODOXIME PROXETIL]: the AC50 in assay [2] and in [4] was above 30 µM throughout.

Regarding `NS(=O)(=O)c1cc2c(cc1Cl)NC(CC1CCCC1)NS2(=O)=O` (stereo unspecified) [CYCLOPENTHIAZIDE], the AC50 in assay [2] and in assay [4] was above 30 µM throughout.

`Nc1nc(-n2cc(C(=O)O)c(=O)c3cc(F)c(N4CC(O)C4)c(Cl)c32)c(F)cc1F` [DELAFLOXACIN] gave an AC50 in [2] above 30 µM.

In turn, `CC1=NN(c2ccccc2)C(=O)C1` [EDARAVONE] yielded a concentration at half-maximal activity (AC50) in assay [2] above 30 µM.

Take `N/N=c1/cc2c(n[nH]1)CCN(C(=O)c1ccccc1)C2` [ENDRALAZINE]: the AC50 in assay [2] and in assay [4] was above 30 µM throughout.

As to `CC(C)=CCC1C(=O)N(c2ccccc2)N(c2ccccc2)C1=O` [FEPRAZONE], in assay [2], the AC50 is above 30 µM.

In turn, `CCOC(=O)CC(SP(=S)(OC)OC)C(=O)OCC` (stereo unspecified) [MALATHION] returned an AC50 in assay [2] of 11.5 µM. That is a double-digit micromolar value.

As for `CN1C(=O)N(C)C2C1N(C)C(=O)N2C` (stereo unspecified) [MEBICAR], the AC50 in [2] is above 30 µM.

On to `CC(=O)O[C@]1(C(C)=O)CC[C@H]2[C@@H]3C[C@H](C)C4=CC(=O)CC[C@]4(C)[C@H]3CC[C@@]21C` [MEDROXYPROGESTERONE ACETATE], for which the AC50 in assay [2], in [5], in assay [6], in assay [7], in assay [8] and in assay [9] was above 30 µM throughout.

Take `Cn1cc[nH]c1=S` [METHIMAZOLE]: the AC50 in [2] was above 30 µM.

On to `NC(=O)c1cccc2cn(-c3ccc([C@@H]4CCCNC4)cc3)nc12` [NIRAPARIB], for which the AC50 in assay [2] was above 30 µM.

In turn, `Nc1ccc(/N=N/c2ccccc2)c(N)n1` [PHENAZOPYRIDINE] displayed an AC50 in [2] of 13.1 µM. This counts as double-digit micromolar.

`CN(C)CCCN1c2ccccc2Sc2ccccc21` [PROMAZINE]: the concentration at half-maximal activity (AC50) was 0.0171 µM in assay [1]; above 30 µM in assay [5]; 6.5 µM in [3]; above 30 µM in assay [6]; 1.08 µM in [10]; 2.9 µM in assay [4]. For the same compound, the AC50 was above 30 µM in assay [7], above 30 µM in assay [11], above 10 µM in assay [8] and above 10 µM in assay [9].

With `O=C(O)CCn1c2c(c3ccccc31)C[C@H](NS(=O)(=O)c1ccc(F)cc1)CC2` [RAMATROBAN], the AC50 was above 30 µM in assay [1]; above 30 µM in assay [2]; above 30 µM in assay [5]; above 30 µM in assay [3]; above 30 µM in assay [6]; 6.01 µM in assay [10]. Besides, the AC50 was above 30 µM in [4]; above 30 µM in [7]; above 10 µM in assay [11]; above 30 µM in assay [8]; above 30 µM in assay [9].

As for `O=P(O)(O)C(O)(Cc1cccnc1)P(=O)(O)O` [RISEDRONIC ACID], the AC50 in assay [1] is above 10 µM; in assay [5] it was above 30 µM; in assay [3] it was above 30 µM; in assay [6] it was above 30 µM; in assay [10], above 10 µM; in assay [4], above 30 µM. Moreover, the concentration at half-maximal activity (AC50) in assay [7], in [11], in [8] and in assay [9] was above 30 µM in each case.

On to `COc1cc(NCc2ccc3nc(N)nc(N)c3c2C)cc(OC)c1OC` [TRIMETREXATE], for which the AC50 in assay [2] is above 30 µM.
